The values that follow come from BindingDB's records for doi:10.1021/jm801026e (Wyeth Research, 2009).

Assay [1] can be described thus: Inhibition of retinoblastoma susceptibility gene product phosphorylation in human MCF7 cells after 24 hrs.
Assay [2] has as its target 3-phosphoinositide-dependent protein kinase 1 (Homo sapiens) (UniProt O15530). Nature of the assay: Inhibition of PDK1.

For the compound `O=C1NC(=O)c2ccc(I)cc2C1=CNCc1ccc(-c2ccoc2)c(O)c1` [4-[(4-Furan-3-yl-3-hydroxy-benzylamino)-methylene]-6-iodo-4Hisoquinoline-1,3-dione], the IC50 in assay [1] is 0.61 µM; in assay [2] it was 17 µM.
In assay [1], `CCCOc1cnc(CNC=C2C(=O)NC(=O)c3ccc(C(C)(C)C)cc32)cc1O` [6-tert-Butyl-4-{[(4-hydroxy-5-propoxy-pyridin-2-ylmethyl)-amino]-methylene}-4H-isoquinoline-1,3-dione] showed an IC50 of 0.2 µM.
`O=C1NC(=O)c2ccc(I)cc2C1=CNCc1ccn(-c2ccoc2)c(=O)c1` [(4Z)-4-[({[1-(3-Furyl)-2-oxo-1,2-dihydropyridin-4-yl]methyl}-amino)methylene]-6-iodoisoquinoline-1,3(2H,4H)-dione] had an IC50 in assay [1] of 0.37 µM.

In general, IC50 refers to the concentration that gives 50% inhibition.
